We go through 20 substances from patent US20040057961A1, “Human t cell response to mhc-binding motif clusters” (priority 2000, published 2004).

One test relates to peripheral blood mononuclear cells from Mtb-naive (PPD skin-test negative) subjects. In words: Lymphoproliferation assay ([3H]thymidine, stimulation index) with PBMC of Mtb-naive subjects. It counts as cell-based, human. The settings on record: Mtb-naive controls, n=19.
On to “FAYGSFVRTVSLPVGA (listed as Mycobacterium tuberculosis) [16-5, 16 kDa Mtb protein, amino acids 92-107]”, for which the “Mtb-naive controls that responded” value is on record as “none”.
For the substance “PLLNVGKLIANNTRVWVY (listed as Mycobacterium tuberculosis) [32-8, 32 kDa Mtb protein, amino acids 193-210]”, the “Mtb-naive controls that responded” value is reported as “none”.

The test is the same for the next values; noted with them: control antigen 5 μg/ml; n=19.
With “TT: tetanus toxoid, control antigen (Connaught) [reference compound]”, the “Mtb-naive controls not showing a proliferative response” value is “one”.

Another test deals with peripheral blood mononuclear cells from Mtb-immune (PPD skin-test positive) subjects. In words: Lymphoproliferation assay ([3H]thymidine, stimulation index) with PBMC of Mtb-immune subjects. The note with it: 1 μg/ml; the 41 subjects who were tested (both groups). It counts as cell-based, human.
Turning to phytohemagglutinin [reference compound], the “response to mitogen in words” value is “robust response”.

Still in this test, the particulars now being: Mtb-immune subjects, n=40.
Regarding “FAYGSFVRTVSLPVGA (listed as Mycobacterium tuberculosis) [16-5, 16 kDa Mtb protein, amino acids 92-107]”, the “% responders among Mtb-immune subjects” value turned out to be 28%.
On the same count and under the same terms, next, “PLLNVGKLIANNTRVWVY (listed as Mycobacterium tuberculosis) [32-8, 32 kDa Mtb protein, amino acids 193-210]”: 25%.

Still in this test, the particulars now being: Philippines cohort; response positive if SI≧2.0.
As for “CEVWSNVSETISGPRLYGEM (listed as Mycobacterium tuberculosis) [14-5, 14 kDa Mtb protein, amino acids 74-93]”, the “Phil % responders (n = 38)” value amounted to 5%.
Same read-out and setting: next, “FSELFAAFPSFAGLRPTFDT [16-2, 16 kDa Mtb protein, amino acids 17-36]”: 10%; “GSFGSAPSNGWLKLGLVEFG (listed as Mycobacterium tuberculosis) [14-2, 14 kDa Mtb protein, amino acids 19-38]”: 15%.
On to “LKLGLVEFGGVAKLNAEVMS (listed as Mycobacterium tuberculosis) [14-3, 14 kDa Mtb protein, amino acids 30-49]”, for which the “Phil % responders (n = 38)” value was determined as 8%.
As to “MLGNAPSVVPNTTLGMHC (listed as Mycobacterium tuberculosis) [14-1, 14 kDa Mtb protein, amino acids 1-18]”, the “Phil % responders (n = 38)” value is 5%.
“QAVMLGTGTPNRA (listed as Mycobacterium tuberculosis) [14-4, 14 kDa Mtb protein, amino acids 56-68]”: the “Phil % responders (n = 38)” value is reported as 8%.
As for “RSLFPEFSELFAAFPSFAGL (listed as Mycobacterium tuberculosis) [16-1, 16 kDa Mtb protein, amino acids 11-30]”, the “Phil % responders (n = 38)” value came out at 10%.
Turning to “VSETISGPRLYGEMTMQGTR (listed as Mycobacterium tuberculosis) [14-6, 14 kDa Mtb protein, amino acids 80-99]”, the “Phil % responders (n = 38)” value is 3%.

The test is the same for the next values; noted with them: Philippines cohort; response positive if SI≧2.0; peptide 1 and 10 μg/ml.
Consider “CEVWSNVSETISGPRLYGEM (listed as Mycobacterium tuberculosis) [14-5, 14 kDa Mtb protein, amino acids 74-93]”, for which the “Phil # responders (n = 38)” value was 2.
“FSELFAAFPSFAGLRPTFDT [16-2, 16 kDa Mtb protein, amino acids 17-36]”: the “Phil # responders (n = 38)” value turned out to be 4.
“GSFGSAPSNGWLKLGLVEFG (listed as Mycobacterium tuberculosis) [14-2, 14 kDa Mtb protein, amino acids 19-38]”: the “Phil # responders (n = 38)” value was 6.
The same measure, in the same setting: the result for “LKLGLVEFGGVAKLNAEVMS (listed as Mycobacterium tuberculosis) [14-3, 14 kDa Mtb protein, amino acids 30-49]” reads 3; that for “MLGNAPSVVPNTTLGMHC (listed as Mycobacterium tuberculosis) [14-1, 14 kDa Mtb protein, amino acids 1-18]”, 2.
With “QAVMLGTGTPNRA (listed as Mycobacterium tuberculosis) [14-4, 14 kDa Mtb protein, amino acids 56-68]”, the “Phil # responders (n = 38)” value was 3.
On the same count and under the same terms, next, “RSLFPEFSELFAAFPSFAGL (listed as Mycobacterium tuberculosis) [16-1, 16 kDa Mtb protein, amino acids 11-30]”: 4; “VSETISGPRLYGEMTMQGTR (listed as Mycobacterium tuberculosis) [14-6, 14 kDa Mtb protein, amino acids 80-99]”: 1.

Still in this test, the particulars now being: Providence cohort; response positive if SI≧2.0.
“CEVWSNVSETISGPRLYGEM (listed as Mycobacterium tuberculosis) [14-5, 14 kDa Mtb protein, amino acids 74-93]”: the “Prov % responders (n = 22)” value came to 5%.
Consider “FSELFAAFPSFAGLRPTFDT [16-2, 16 kDa Mtb protein, amino acids 17-36]”, for which the “Prov % responders (n = 22)” value came out at 3%.
Take “GSFGSAPSNGWLKLGLVEFG (listed as Mycobacterium tuberculosis) [14-2, 14 kDa Mtb protein, amino acids 19-38]”: the “Prov % responders (n = 22)” value is on record as 8%.
Same read-out and setting: next, “LKLGLVEFGGVAKLNAEVMS (listed as Mycobacterium tuberculosis) [14-3, 14 kDa Mtb protein, amino acids 30-49]”: 10%.
Regarding “MLGNAPSVVPNTTLGMHC (listed as Mycobacterium tuberculosis) [14-1, 14 kDa Mtb protein, amino acids 1-18]”, the “Prov % responders (n = 22)” value is recorded as 5%.
The same measure, in the same setting: the result for “QAVMLGTGTPNRA (listed as Mycobacterium tuberculosis) [14-4, 14 kDa Mtb protein, amino acids 56-68]” reads 3%.
In the case of “RSLFPEFSELFAAFPSFAGL (listed as Mycobacterium tuberculosis) [16-1, 16 kDa Mtb protein, amino acids 11-30]”, the “Prov % responders (n = 22)” value amounted to 5%.
Still for that read-out and setting: next, “VSETISGPRLYGEMTMQGTR (listed as Mycobacterium tuberculosis) [14-6, 14 kDa Mtb protein, amino acids 80-99]”: 3%.

The same test, now with this note: Providence cohort; response positive if SI≧2.0; peptide 1 and 10 μg/ml.
With “CEVWSNVSETISGPRLYGEM (listed as Mycobacterium tuberculosis) [14-5, 14 kDa Mtb protein, amino acids 74-93]”, the “Prov # responders (n = 22)” value is on record as 2.
Regarding “FSELFAAFPSFAGLRPTFDT [16-2, 16 kDa Mtb protein, amino acids 17-36]”, the “Prov # responders (n = 22)” value turned out to be 1.
The same measure, in the same setting: the result for “GSFGSAPSNGWLKLGLVEFG (listed as Mycobacterium tuberculosis) [14-2, 14 kDa Mtb protein, amino acids 19-38]” reads 3; that for “LKLGLVEFGGVAKLNAEVMS (listed as Mycobacterium tuberculosis) [14-3, 14 kDa Mtb protein, amino acids 30-49]”, 4.
As for “MLGNAPSVVPNTTLGMHC (listed as Mycobacterium tuberculosis) [14-1, 14 kDa Mtb protein, amino acids 1-18]”, the “Prov # responders (n = 22)” value was 2.
The same measure, in the same setting: next, “QAVMLGTGTPNRA (listed as Mycobacterium tuberculosis) [14-4, 14 kDa Mtb protein, amino acids 56-68]”: 1; “RSLFPEFSELFAAFPSFAGL (listed as Mycobacterium tuberculosis) [16-1, 16 kDa Mtb protein, amino acids 11-30]”: 2.
For the substance “VSETISGPRLYGEMTMQGTR (listed as Mycobacterium tuberculosis) [14-6, 14 kDa Mtb protein, amino acids 80-99]”, the “Prov # responders (n = 22)” value was determined as 1.

The test is the same for the next values; noted with them: all Mtb-immune subjects, n=40.
For “AELPGVDPDKDVD (listed as Mycobacterium tuberculosis) [16-3, 16 kDa Mtb protein, amino acids 54-66]”, the “number of Mtb-immune responders (proliferative response SI≧2.0)” value (shortened to “number of Mtb-immune responders”) is on record as “one”.
Consider “FAYGSFVRTVSLPVGA (listed as Mycobacterium tuberculosis) [16-5, 16 kDa Mtb protein, amino acids 92-107]”, for which the “number of Mtb-immune responders” value is “six”.
On the same count and under the same terms, the result for “GSFGSAPSNGWLKLGLVEFG (listed as Mycobacterium tuberculosis) [14-2, 14 kDa Mtb protein, amino acids 19-38]” reads “six”; that for “KFLEGFVRTSNIKFQD (listed as Mycobacterium tuberculosis) [32-9, 32 kDa Mtb protein, amino acids 227-242]”, “six”; that for LAIGGAATGIAAVLTDGNPP [19-3], “six”.
As for “LAIYHPQQFVYAGAMSGLLD (listed as Mycobacterium tuberculosis) [32-7, 32 kDa Mtb protein, amino acids 135-154]”, the “number of Mtb-immune responders” value is on record as “six”.
For the substance “LKLGLVEFGGVAKLNAEVMS (listed as Mycobacterium tuberculosis) [14-3, 14 kDa Mtb protein, amino acids 30-49]”, the “number of Mtb-immune responders” value was “six”.
On the same count and under the same terms, next, QNVTGSVVCTTAAGNVN [19-2]: “six”; “RHVKPTGSAVVGLSMAASSA [32-5, 32 kDa Mtb protein, amino acids 113-132]”: “six”.
Turning to “RSLFPEFSELFAAFPSFAGL (listed as Mycobacterium tuberculosis) [16-1, 16 kDa Mtb protein, amino acids 11-30]”, the “number of Mtb-immune responders” value is given as “six”.
With “SVVMPVGGQSSFYSDW (listed as Mycobacterium tuberculosis) [32-3, 32 kDa Mtb protein, amino acids 67-82]”, the “number of Mtb-immune responders” value was “only a few”.
Same read-out and setting: the result for “VGLSMAASSALTLAIYHPQQ (listed as Mycobacterium tuberculosis) [32-6, 32 kDa Mtb protein, stop at amino acid 142]” reads “six”.

Still in this test, the particulars now being: control antigen 5 μg/ml; n=40.
As for “TT: tetanus toxoid, control antigen (Connaught) [reference compound]”, the “Mtb-immune subjects showing a proliferative response in vitro” value is listed as “All but six”.

Staying with this test, now noted: control antigen 5 μg/ml; range over responding subjects.
Take “TT: tetanus toxoid, control antigen (Connaught) [reference compound]”: the “stimulation index (SI) range” value is 2-182.
